From patent US12329727B2, “Use of salmeterol as an anti-coronaviral agent” (priority 2020, dated 2025)
Read-outs that look alike come from different tables or passages of the source.

Key:
[1] = test system: MERS-pseudovirus; format: cell-based, MERS-COV; Huh7 cells
[2] = test system: mast cell degranulation; conditions: human lung; cited from earlier work
[3] = test system: NAADP-evoked Ca2+ release (TPC activity); format: biochemical, sea urchin
[4] = test system: SARS-CoV-2 pseudovirus; format: cell-based, SARS-CoV-2; HEK293 cells expressing ACE2
[5] = test system: ciliary beat frequency; conditions: cited from earlier work

In the case of `OCc1cc(C(O)CNCCCCCCOCCCCc2ccccc2)ccc1O` (racemic) [salmeterol, (RS)-2-(hydroxymethyl)-4-{1-hydroxy-2-[6-(4-phenylbutoxy)hexylamino]ethyl}phenol], the “inhibition of MERS-COV infectivity in a pseudovirus translocation assay” value [1] is given as “potent and penetrant”, the mast cell degranulation [2] is given as “potent and long-lasting inhibition” and the “inhibition of TPC activity” value [3] is given as “able to inhibit”. The “rank for TPC inhibition (amplitude of NAADP-evoked Ca2+ release, rank #1 = greatest inhibition)” value [3] was 16/1534, the “inhibition of SARS-CoV-2 pseudovirus infectivity” value ([4]; 10 μM) was “pronounced inhibition” and the ciliary beat frequency [5] was “rapid and prolonged increase”.

For `NCCOB(c1ccccc1)c1ccccc1` [2-APB], the “inhibition of SARS-CoV-2 pseudovirus infectivity” value ([4]; 10 μM) was “no effect”.

With `CC(=O)OCOC(=O)CN(CC(=O)OCOC(C)=O)c1ccccc1OCCOc1ccccc1N(CC(=O)OCOC(C)=O)CC(=O)OCOC(C)=O` [BAPTA-AM] the “inhibition of SARS-CoV-2 pseudovirus infectivity” value [4] was “nearly complete inhibition”.

With ryanodine the “inhibition of SARS-CoV-2 pseudovirus infectivity” value ([4]; 10 μM) was “no effect”.

For xestospongin, the “inhibition of SARS-CoV-2 pseudovirus infectivity” value ([4]; 10 μM) was “no effect”.
